The values that follow come from paper PMC11650638, “In Vivo Activity Profiling of Biosynthetic Darobactin D22 against Critical Gram-Negative Pathogens” (ACS Infectious Diseases, 2024).

The test system of data set [1] is Pseudomonas aeruginosa. The data set can be described thus: MIC50/MIC90 determination and MIC against isolates of P. aeruginosa. To be noted: Pseudomonas aeruginosa, read-out: MIC. Type of data set: cell-based.
The subject of data set [2] is Pseudomonas aeruginosa PAO1. Briefly: Murine neutropenic thigh infection model. Type of data set: in vivo, CD-1 mice. To be noted: 8 h, 20 mg/kg. How it is done:
Zg, Committee on Animal Research Ethics-Zagreb) in collaboration with the Croatian Competent Authority and the National Ethics Committee, granting this project a 5-year authorisation, in compliance […]
Animals: The study was performed in male, 6–7 weeks old C57BL/6 mice. Animals were housed in a temperature-controlled room (22±2°C), relative humidity 55±10%, 15–20 air changes per hour, atrificial […]
Sampling: Serial or terminal blood samples were collected into EDTA-coated tubes at the following […]
into Precellys® tubes for all animals. Additional, terminal tissue samples were taken at 1 h for the IV and IP groups. For the SC and IT groups, terminal tissue samples were further taken at 2, 4, 8 h. Urine […]
samples (3 animals) were collected into emtpy tubes and kept chilled, followed by centrifugation at 3000 rpm, 10 min, 4°C. Total urine volume was recorded. […]
reduce stress and harm arising from experimental procedures, including use of analgesia, access to wet food and additional bedding. The room temperature, relative humidity and maximum background noise were maintained according to Home Office Code of Practice. Mice were exposed to 12-hour light/dark […]
Mice were immunosuppressed using cyclophosphamide administered subcutaneously (SC) at 150 mg/kg on day minus 4 and at 100 mg/kg on day minus 1 relative to the day of infection. Following […]

Data set [3] has as its system Acinetobacter baumannii. The data set can be described thus: MIC50/MIC90 determination and MIC against isolates of A. baumannii. Particulars: Acinetobacter baumannii, read-out: MIC. Type of data set: cell-based.
The subject of data set [4] is Klebsiella pneumoniae. Briefly: MIC50/MIC90 determination and MIC against isolates of K. pneumoniae. Format: cell-based. Particulars: Klebsiella pneumoniae.
The subject of data set [5] is Escherichia coli. Briefly: MIC50/MIC90 determination and MIC against isolates of E. coli. Type of data set: cell-based. Particulars: Escherichia coli.
For data set [6], the system named is Pseudomonas aeruginosa PAO1. More on the design: method as in PMID 36308277, PMID 38093695. Particulars: cited from earlier work.
Data set [7] deals with Escherichia coli ATCC25922. More on the design: method as in PMID 36308277, PMID 38093695. To be noted: cited from earlier work.
Data set [8] concerns Acinetobacter baumannii DSM30008. More on the design: method as in PMID 36308277, PMID 38093695. To be noted: cited from earlier work.
Data set [9] deals with Acinetobacter baumannii ATCC17978. Briefly: microbe, parasite or virus in culture. Format: cell-based. The protocol:
(§1) MIC90 determination was performed
(§2) MIC against Clinical Isolates of E. coli.
(§3) Zebrafish Infection Model
(§4) carbenicillin (Carl Roth, Karlsruhe, Germany).3
(§5) Minimum inhibitory concentrations

Data set [10] has the same test system. Briefly: Zebrafish embryo model of A. baumannii infection. To be noted: 10 mg/kg, caudal vein microinjection 3 hpi.
Data set [11] deals with Escherichia coli clinical isolates. The data set can be described thus: MIC against clinical isolates of E. coli (Statens Serum Institut, CLSI). Format: cell-based. How it is done: as §1, §2, §3, §4, §5
For data set [12], the system named is Escherichia coli C175-94. Briefly: Murine urinary tract infection model. Format: in vivo, C3H/HeNHsd mice. Particulars: positive control, BID, day 4. The protocol: One IV dosing arm at 5 mg/kg was included for comparison. Mice were treated for 3 days post-inoculation, and the bacterial burden was determined on day 4.
In vivo urinary tract infection model. The murine urinary tract infection model was conducted at Statens Serum Institut in Copenhagen, Denmark under the supervision of the Danish Animal Ethical […]
Bacterial challenge organism: The challenge organism was Escherichia coli C175-94 (serotype O8:K48:H4), a clinical isolate elaborating type 1 fimbriae, previously used for developing and validating the urinary tract infecti on model.7
Animals: Upon arrival to Statens Serum Institut animal facility, female C3H/HeNHsd mice 5 -6 weeks old (Envigo, Netherlands), were randomized to 8 mice per cage and acclimatized 1 week before experimental start. Bedding was from Tapvei and Enviro -Dri nesting material and cardboard houses (Bio-serv) was offered as enrichment. Mice had free access to domestic quality drinking water and food […]
Mice were monitored twice daily for clinical symptoms of infection or discomfort and euthanized if reaching humane endpoints specified in the ethical permission […]
Dickinson, cat. […] Colony counts of urine were determined immediately. […]
OD540nm of the supernatant was measured and the hemolytic % was calculated following the formula: (OD test compound – OD blank)-(OD positive

Structures are written as SMILES. In brackets after ≈: the same amount, converted by molar mass. Where two headings read alike, the source gives them in different places.

Take `O=C(O)c1cn(C2CC2)c2cc(N3CCNCC3)c(F)cc2c1=O` [Ciprofloxacin, ciprofloxacin]: the MIC is 4 µg/mL (≈ 12.1 µM) in data set [1] (ATCCBAA2114, isolate ATCC BAA-2114); 0.5 µg/mL (≈ 1.51 µM) in data set [1] (CIP105381, isolate CIP 105381); 1 µg/mL (≈ 3.02 µM) in data set [1] (PAO1, isolate PAO1); 16 µg/mL (≈ 48.3 µM) in data set [1] (isolate BOR 05); 4 µg/mL (≈ 12.1 µM) in data set [1] (isolate CAE 02); 0.5 µg/mL (≈ 1.51 µM) in data set [1] (isolate CHA). Besides, the MIC was 0.5 µg/mL (≈ 1.51 µM) in data set [1] (isolate R2255); 16 µg/mL (≈ 48.3 µM) in [1] (isolate ROU 01); 0.5 µg/mL (≈ 1.51 µM) in data set [1] (isolate SDE 05); 0.5 µg/mL (≈ 1.51 µM) in data set [3] (ATCC17978, isolate ATCC17978); 0.5 µg/mL (≈ 1.51 µM) in data set [3] (ATCC19187, isolate ATCC19187); 16 µg/mL (≈ 48.3 µM) in [3] (ATCC51432, isolate ATCC51432). Further, the MIC in [3] (ATCCBAA747, isolate ATCC BAA-747) is 0.5 µg/mL (≈ 1.51 µM); in data set [3] (ATCCBAA1605, isolate ATCC BAA-1605), more than 32 µg/mL; in [3] (ATCCBAA1710, isolate ATCC BAA-1710), 32 µg/mL (≈ 96.6 µM); in data set [3] (ATCCBAA1791, isolate ATCC BAA-1791), more than 32 µg/mL; in data set [3] (ATCCBAA1795, isolate ATCC BAA-1795) it was more than 32 µg/mL; in data set [3] (ATCCBAA1878, isolate ATCC BAA-1878), 4 to 8 µg/mL (≈ 12.1 to 24.1 µM). Besides, the MIC in data set [3] (CIP105742, isolate CIP 105742) is 0.125 to 0.25 µg/mL (≈ 0.377 to 0.754 µM); in data set [3] (CIP107292, isolate CIP 107292) it was more than 32 µg/mL; in data set [3] (NCTC13301, isolate NCTC13301), more than 32 µg/mL; in [3] (isolate BM4454), 32 µg/mL (≈ 96.6 µM); in data set [3] (isolate G478 (AYE)), more than 32 µg/mL; in data set [3] (isolate R831), 8 µg/mL (≈ 24.1 µM). For the same molecule, the MIC in [3] (isolate R835) is 32 µg/mL (≈ 96.6 µM); in [4] (NCTC13439, isolate NCTC13439) it was 16 µg/mL (≈ 48.3 µM); in [4] (NCTC13442, isolate NCTC13442), 4 µg/mL (≈ 12.1 µM); in data set [5], 0.063 to 0.125 µg/mL (≈ 0.19 to 0.377 µM). Moreover, the “Δlog CFU/g in thigh muscle” value in data set [2] is recorded as “–4.06 log CFU/g”.
`N=C(N)NCCC[C@H](NC(=O)[C@H]1NC(=O)[C@H](CO)NC(=O)[C@H]2NC(=O)[C@H](CCC(N)=O)NC(=O)[C@@H](N)Cc3c[nH]c4c(cccc34)O[C@@H]2c2c[nH]c3cc(ccc23)[C@@H]1CCCN)C(=O)N[C@@H](Cc1c[nH]c2ccccc12)C(=O)O` [Darobactin D69]: in data set [6], the “MIC P. aeruginosa” value is 1 µg/mL (≈ 0.919 µM). The “MIC E. coli” value in [7] was 1 µg/mL (≈ 0.919 µM). Also, the “MIC A. baumannii” value in data set [8] was 0.5 µg/mL (≈ 0.459 µM). The MIC in [9] (ATCC17978, GFP-tagged A. baumannii ATCC17978) worked out at 1 µg/mL (≈ 0.919 µM); in data set [9] (ATCC17978, WT A. baumannii ATCC17978) it was 2 µg/mL (≈ 1.84 µM). Moreover, in [10], the “clearance of A. baumannii infection within zebrafish embryos” value is “completely cleared”.
With `CNC(C)C1CCC(N)C(OC2C(N)CC(N)C(OC3OCC(C)(O)C(NC)C3O)C2O)O1` (centres unmarked) [Gentamicin, gentamicin], the MIC is 0.5 to 1 µg/mL (≈ 1.05 to 2.09 µM) in data set [11] (ATCC25922, E. coli ATCC25922); 16 to 32 µg/mL (≈ 33.5 to 67 µM) in data set [11] (E. coli 50639799); 2 µg/mL (≈ 4.19 µM) in data set [11] (E. coli C175-94); more than 64 µg/mL in [11] (E. coli DSA443); 1 to 2 µg/mL (≈ 2.09 to 4.19 µM) in [11] (E. coli EC 106-09 (ESBL)). The “bacterial burden in urine, bladder, kidney” value in data set [12] is listed as “reduction of bacterial burden below stasis level in all tissues”.
